Reference: PubChem BioAssay (NCI)
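Results reflect a 48-hour exposure of cells in 96-well plates to compound at five concentrations. Abbreviation: GI50, concentration required for 50% inhibition of growth. TGI: concentration producing complete growth inhibition.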

What was measured:
Test in all cases: NCI tumour cell line growth inhibition, 48 h
786-0 renal = test system: 786-0 renal
A498 renal = test system: A498 renal
A549 NSCLC = test system: A549 NSCLC
ACHN renal = test system: ACHN renal
BT-549 breast = test system: BT-549 breast
CAKI-1 renal = test system: CAKI-1 renal
CCRF-CEM leukemia = test system: CCRF-CEM leukemia
COLO 205 colon = test system: COLO 205 colon
DU-145 prostate = test system: DU-145 prostate
HCC-2998 colon = test system: HCC-2998 colon
HCT-116 colon = test system: HCT-116 colon
HCT-15 colon = test system: HCT-15 colon
HL-60(TB) leukemia = test system: HL-60(TB) leukemia
HOP-62 NSCLC = test system: HOP-62 NSCLC
HOP-92 NSCLC = test system: HOP-92 NSCLC
HS 578T breast = test system: HS 578T breast
HT29 colon = test system: HT29 colon
IGROV1 ovarian = test system: IGROV1 ovarian
K-562 leukemia = test system: K-562 leukemia
KM12 colon = test system: KM12 colon
LOX IMVI melanoma = test system: LOX IMVI melanoma
M14 melanoma = test system: M14 melanoma
MALME-3M melanoma = test system: MALME-3M melanoma
MCF7 breast = test system: MCF7 breast
MDA-MB-231 breast = test system: MDA-MB-231 breast
MDA-MB-435 = test system: MDA-MB-435
MOLT-4 leukemia = test system: MOLT-4 leukemia
NCI-H226 lung = test system: NCI-H226 lung
NCI-H23 lung = test system: NCI-H23 lung
NCI-H460 lung = test system: NCI-H460 lung
NCI-H522 lung = test system: NCI-H522 lung
NCI/ADR-RES ovarian = test system: NCI/ADR-RES ovarian
OVCAR-3 ovarian = test system: OVCAR-3 ovarian
OVCAR-4 ovarian = test system: OVCAR-4 ovarian
OVCAR-5 ovarian = test system: OVCAR-5 ovarian
OVCAR-8 ovarian = test system: OVCAR-8 ovarian
PC-3 prostate = test system: PC-3 prostate
RPMI-8226 leukemia = test system: RPMI-8226 leukemia
RXF 393 renal = test system: RXF 393 renal
SF-268 CNS = test system: SF-268 CNS
SF-295 CNS = test system: SF-295 CNS
SF-539 CNS = test system: SF-539 CNS
SK-MEL-2 melanoma = test system: SK-MEL-2 melanoma
SK-MEL-28 melanoma = test system: SK-MEL-28 melanoma
SK-MEL-5 melanoma = test system: SK-MEL-5 melanoma
SK-OV-3 ovarian = test system: SK-OV-3 ovarian
SN12C renal = test system: SN12C renal
SNB-19 CNS = test system: SNB-19 CNS
SNB-75 CNS = test system: SNB-75 CNS
SR leukemia = test system: SR leukemia
SW-620 colon = test system: SW-620 colon
T-47D breast = test system: T-47D breast
TK-10 renal = test system: TK-10 renal
U251 CNS = test system: U251 CNS
UACC-257 melanoma = test system: UACC-257 melanoma
UACC-62 melanoma = test system: UACC-62 melanoma
UO-31 renal = test system: UO-31 renal

Work on Cn1cc(C2=C(Sc3ccccc3)C(=O)NC2=O)c2ccccc21 yielded a GI50 (786-0 renal) greater than 16.4 µM, a TGI (786-0 renal) greater than 25 µM and a GI50 (A498 renal) greater than 23.1 µM. The TGI (A498 renal) was greater than 25 µM, the GI50 (A549 NSCLC) was greater than 22.4 µM and the TGI (A549 NSCLC) was greater than 25 µM. The GI50 (ACHN renal) was 6.23 µM, the TGI (ACHN renal) was greater than 17.3 µM and the GI50 (BT-549 breast) was 9.49 µM. For the same compound, the TGI (BT-549 breast) was greater than 20.7 µM, the GI50 (CAKI-1 renal) was greater than 18.1 µM and the TGI (CAKI-1 renal) was greater than 25 µM. It also gave a GI50 (CCRF-CEM leukemia) of 7.7 µM, a TGI (CCRF-CEM leukemia) greater than 25 µM and a GI50 (COLO 205 colon) greater than 16.2 µM. For the same compound, the TGI (COLO 205 colon) was greater than 25 µM, the GI50 (DU-145 prostate) was 13.8 µM and the TGI (DU-145 prostate) was greater than 25 µM. The GI50 (HCC-2998 colon) was greater than 12.3 µM, the TGI (HCC-2998 colon) was greater than 18.2 µM and the GI50 (HCT-116 colon) was 7.41 µM. For the same compound, the TGI (HCT-116 colon) was greater than 16.9 µM, the GI50 (HCT-15 colon) was 7.87 µM and the TGI (HCT-15 colon) was greater than 19.1 µM. For the same compound, the GI50 (HL-60(TB) leukemia) was 8.4 µM, the TGI (HL-60(TB) leukemia) was 23.5 µM and the GI50 (HOP-62 NSCLC) was greater than 25 µM. For the same compound, the TGI (HOP-62 NSCLC) was greater than 25 µM, the GI50 (HOP-92 NSCLC) was 24.5 µM and the TGI (HOP-92 NSCLC) was greater than 25 µM. For the same compound, the GI50 (HS 578T breast) was greater than 18.2 µM, the TGI (HS 578T breast) was greater than 25 µM and the GI50 (HT29 colon) was greater than 18.7 µM. It also gave a TGI (HT29 colon) greater than 25 µM, a GI50 (IGROV1 ovarian) of 10.5 µM and a TGI (IGROV1 ovarian) greater than 25 µM. It also gave a GI50 (K-562 leukemia) of 12.9 µM, a TGI (K-562 leukemia) greater than 25 µM and a GI50 (KM12 colon) greater than 25 µM. The TGI (KM12 colon) was greater than 25 µM, the GI50 (LOX IMVI melanoma) was 4.7 µM and the TGI (LOX IMVI melanoma) was 10.2 µM. For the same compound, the GI50 (M14 melanoma) was 24.2 µM, the TGI (M14 melanoma) was greater than 25 µM and the GI50 (MALME-3M melanoma) was greater than 13.2 µM. It also gave a TGI (MALME-3M melanoma) greater than 20.2 µM, a GI50 (MCF7 breast) of 7.83 µM and a TGI (MCF7 breast) greater than 20.6 µM. It also gave a GI50 (MDA-MB-231 breast) of 12.1 µM, a TGI (MDA-MB-231 breast) greater than 25 µM and a GI50 (MDA-MB-435) of 10 µM. It also gave a TGI (MDA-MB-435) greater than 25 µM, a GI50 (MOLT-4 leukemia) of 7.9 µM and a TGI (MOLT-4 leukemia) greater than 25 µM. It also gave a GI50 (NCI-H226 lung) greater than 25 µM, a TGI (NCI-H226 lung) greater than 25 µM and a GI50 (NCI-H23 lung) greater than 22.2 µM. It also gave a TGI (NCI-H23 lung) greater than 25 µM, a GI50 (NCI-H460 lung) greater than 25 µM and a TGI (NCI-H460 lung) greater than 25 µM. It also gave a GI50 (NCI-H522 lung) of 3.29 µM, a TGI (NCI-H522 lung) of 8.44 µM and a GI50 (NCI/ADR-RES ovarian) greater than 25 µM. For the same compound, the TGI (NCI/ADR-RES ovarian) was greater than 25 µM, the GI50 (OVCAR-3 ovarian) was 9.57 µM and the TGI (OVCAR-3 ovarian) was greater than 22.5 µM. For the same compound, the GI50 (OVCAR-4 ovarian) was greater than 18.3 µM, the TGI (OVCAR-4 ovarian) was greater than 25 µM and the GI50 (OVCAR-5 ovarian) was greater than 25 µM. It also gave a TGI (OVCAR-5 ovarian) greater than 25 µM, a GI50 (OVCAR-8 ovarian) greater than 14.2 µM and a TGI (OVCAR-8 ovarian) greater than 25 µM. It also gave a GI50 (PC-3 prostate) greater than 25 µM, a TGI (PC-3 prostate) greater than 25 µM and a GI50 (RPMI-8226 leukemia) of 9.19 µM. It also gave a TGI (RPMI-8226 leukemia) greater than 25 µM, a GI50 (RXF 393 renal) of 7.2 µM and a TGI (RXF 393 renal) greater than 17.6 µM. It also gave a GI50 (SF-268 CNS) greater than 15.2 µM, a TGI (SF-268 CNS) greater than 25 µM and a GI50 (SF-295 CNS) greater than 25 µM. It also gave a TGI (SF-295 CNS) greater than 25 µM, a GI50 (SF-539 CNS) greater than 25 µM and a TGI (SF-539 CNS) greater than 25 µM. It also gave a GI50 (SK-MEL-2 melanoma) greater than 13.6 µM, a TGI (SK-MEL-2 melanoma) greater than 21.8 µM and a GI50 (SK-MEL-28 melanoma) greater than 12.8 µM. It also gave a TGI (SK-MEL-28 melanoma) greater than 22.7 µM, a GI50 (SK-MEL-5 melanoma) greater than 15.1 µM and a TGI (SK-MEL-5 melanoma) greater than 25 µM. It also gave a GI50 (SK-OV-3 ovarian) greater than 25 µM, a TGI (SK-OV-3 ovarian) greater than 25 µM and a GI50 (SN12C renal) greater than 14.9 µM. For the same compound, the TGI (SN12C renal) was greater than 25 µM, the GI50 (SNB-19 CNS) was greater than 25 µM and the TGI (SNB-19 CNS) was greater than 25 µM. It also gave a GI50 (SNB-75 CNS) greater than 25 µM, a TGI (SNB-75 CNS) greater than 25 µM and a GI50 (SR leukemia) of 9.81 µM. For the same compound, the TGI (SR leukemia) was greater than 25 µM, the GI50 (SW-620 colon) was 9.69 µM and the TGI (SW-620 colon) was greater than 16.5 µM. For the same compound, the GI50 (T-47D breast) was 7.56 µM, the TGI (T-47D breast) was greater than 17.2 µM and the GI50 (TK-10 renal) was greater than 13.6 µM. It also gave a TGI (TK-10 renal) greater than 20.4 µM, a GI50 (U251 CNS) greater than 25 µM and a TGI (U251 CNS) greater than 25 µM. The GI50 (UACC-257 melanoma) was greater than 12 µM, the TGI (UACC-257 melanoma) was greater than 21.2 µM and the GI50 (UACC-62 melanoma) was greater than 13.7 µM. It also gave a TGI (UACC-62 melanoma) greater than 25 µM, a GI50 (UO-31 renal) of 8.84 µM and a TGI (UO-31 renal) greater than 14.3 µM.
